Results taken from the supplement of paper PMC11208160.

Assay: recombinant barcode read abundance after kanamycin selection (control-corrected) (log10(CPM+1)); higher = more efficient recombination; sequences stand for … in AGTGCAGAGAAAATCGGCCAGTTTTCTCTGCCTGCAGTCCGCATGCCGT…ATTTATGCAGCGGACTGCCTTTCTCCCAAAGTGATAAACCGGACAGTATCATGGACCGGTTTTCCCGGTAATCCGTATTTGCAAGGTTGGTTTCACT; site = the 11-nt target
Description: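 Same pooled E. coli target screen (IS621 bridge recombinase, kanamycin selection, control-corrected CPM, mean of 2 biological replicates). Here the two core-binding nucleotides of the LTG and RTG of the bridge RNA target-binding loop are mutated. Target and donor CT cores are held constant, and the other 9 guide positions match the target. The target is read from the library oligo sequence. Molecule = full bridge RNA written as DNA: nt 1-80 from the library oligo, rest WT scaffold.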

Row | Sequence | recombinant barcode read abundance (log10)
1 | AAACACACTTGGGTTCTAACCTGTTGCCTAA [AAACACACTAG_LTGcore_CT_RTGcore_TT] (site AAACACACTAG) (LTG core: CT, RTG core: TT) | 1.12
2 | AAACACACTTGGGTTCTAACCTGTTGCCTCC [AAACACACTAG_LTGcore_CT_RTGcore_GG] (site AAACACACTAG) (LTG core: CT, RTG core: GG) | 1.45
3 | AAACACACTTGGGTTCTAACCTGTTGCCTCG [AAACACACTAG_LTGcore_CT_RTGcore_CG] (site AAACACACTAG) (LTG core: CT, RTG core: CG) | 1.01
4 | AAACACACTTGGGTTCTAACCTGTTGCCTGC [AAACACACTAG_LTGcore_CT_RTGcore_GC] (site AAACACACTAG) (LTG core: CT, RTG core: GC) | 0.456
5 | AAACACAGCTGGGTTCTAACCTGTTGCCTGC [AAACACACTAG_LTGcore_GC_RTGcore_GC] (site AAACACACTAG) (LTG core: GC, RTG core: GC) | 0.0607
6 | AAACACAGTTGGGTTCTAACCTGTTGCCTAC [AAACACACTAG_LTGcore_GT_RTGcore_GT] (site AAACACACTAG) (LTG core: GT, RTG core: GT) | 0.112
7 | AAACACAGTTGGGTTCTAACCTGTTGCCTAG [AAACACACTAG_LTGcore_GT_RTGcore_CT] (site AAACACACTAG) (LTG core: GT, RTG core: CT) | 0.804
8 | AAACACATCTGGGTTCTAACCTGTTGCCTAG [AAACACACTAG_LTGcore_TC_RTGcore_CT] (site AAACACACTAG) (LTG core: TC, RTG core: CT) | 0.222
9 | AAACAGTATTGGGTTCTAACCTGTTGCCTAG [AAACAGTCTAG_LTGcore_AT_RTGcore_CT] (site AAACAGTCTAG) (LTG core: AT, RTG core: CT) | 0.571
10 | AAACAGTCCTGGGTTCTAACCTGTTGCCTAG [AAACAGTCTAG_LTGcore_CC_RTGcore_CT] (site AAACAGTCTAG) (LTG core: CC, RTG core: CT) | 0.93
11 | AAACAGTCGTGGGTTCTAACCTGTTGCCTAG [AAACAGTCTAG_LTGcore_CG_RTGcore_CT] (site AAACAGTCTAG) (LTG core: CG, RTG core: CT) | 1.17
12 | AAACAGTCTTGGGTTCTAACCTGTTGCCTAA [AAACAGTCTAG_LTGcore_CT_RTGcore_TT] (site AAACAGTCTAG) (LTG core: CT, RTG core: TT) | 1.55
13 | AAACAGTCTTGGGTTCTAACCTGTTGCCTCT [AAACAGTCTAG_LTGcore_CT_RTGcore_AG] (site AAACAGTCTAG) (LTG core: CT, RTG core: AG) | 1.72
14 | AAACAGTCTTGGGTTCTAACCTGTTGCCTTC [AAACAGTCTAG_LTGcore_CT_RTGcore_GA] (site AAACAGTCTAG) (LTG core: CT, RTG core: GA) | 1.45
15 | AAACAGTTATGGGTTCTAACCTGTTGCCTAG [AAACAGTCTAG_LTGcore_TA_RTGcore_CT] (site AAACAGTCTAG) (LTG core: TA, RTG core: CT) | 0.0345
16 | AAACAGTTATGGGTTCTAACCTGTTGCCTTA [AAACAGTCTAG_LTGcore_TA_RTGcore_TA] (site AAACAGTCTAG) (LTG core: TA, RTG core: TA) | 0.0835
17 | AAACATGATTGGGTTCTAACCTGTTGCCTAG [AAACATGCTAG_LTGcore_AT_RTGcore_CT] (site AAACATGCTAG) (LTG core: AT, RTG core: CT) | 0.372
18 | AAACATGCCTGGGTTCTAACCTGTTGCCTAG [AAACATGCTAG_LTGcore_CC_RTGcore_CT] (site AAACATGCTAG) (LTG core: CC, RTG core: CT) | 0.55
19 | AAACATGCCTGGGTTCTAACCTGTTGCCTGG [AAACATGCTAG_LTGcore_CC_RTGcore_CC] (site AAACATGCTAG) (LTG core: CC, RTG core: CC) | 0.107
20 | AAACATGGGTGGGTTCTAACCTGTTGCCTAG [AAACATGCTAG_LTGcore_GG_RTGcore_CT] (site AAACATGCTAG) (LTG core: GG, RTG core: CT) | 0.427
21 | AAACATGGTTGGGTTCTAACCTGTTGCCTAC [AAACATGCTAG_LTGcore_GT_RTGcore_GT] (site AAACATGCTAG) (LTG core: GT, RTG core: GT) | 0.108

Row | Sequence | recombinant barcode read abundance (log10)
22 | AAACATGTATGGGTTCTAACCTGTTGCCTAG [AAACATGCTAG_LTGcore_TA_RTGcore_CT] (site AAACATGCTAG) (LTG core: TA, RTG core: CT) | 0.0615
23 | AAACATGTCTGGGTTCTAACCTGTTGCCTAG [AAACATGCTAG_LTGcore_TC_RTGcore_CT] (site AAACATGCTAG) (LTG core: TC, RTG core: CT) | 0.0742
24 | AAACATGTCTGGGTTCTAACCTGTTGCCTGA [AAACATGCTAG_LTGcore_TC_RTGcore_TC] (site AAACATGCTAG) (LTG core: TC, RTG core: TC) | 0.0728
25 | ACGGGACACTGGGTTCTAACCTGTTGCAGAG [ACGGGACCTCT_LTGcore_AC_RTGcore_CT] (site ACGGGACCTCT) (LTG core: AC, RTG core: CT) | 0.0883
26 | ACGGGACACTGGGTTCTAACCTGTTGCAGGT [ACGGGACCTCT_LTGcore_AC_RTGcore_AC] (site ACGGGACCTCT) (LTG core: AC, RTG core: AC) | 0.0869
27 | ACGGGACCTTGGGTTCTAACCTGTTGCAGAG [ACGGGACCTCT_LTGcore_CT_RTGcore_CT] (site ACGGGACCTCT) (LTG core: CT, RTG core: CT) | 2.63
28 | ACGGGACCTTGGGTTCTAACCTGTTGCAGCC [ACGGGACCTCT_LTGcore_CT_RTGcore_GG] (site ACGGGACCTCT) (LTG core: CT, RTG core: GG) | 1.11
29 | ACGGGACCTTGGGTTCTAACCTGTTGCAGCG [ACGGGACCTCT_LTGcore_CT_RTGcore_CG] (site ACGGGACCTCT) (LTG core: CT, RTG core: CG) | 0.0844
30 | ACGGGACCTTGGGTTCTAACCTGTTGCAGGG [ACGGGACCTCT_LTGcore_CT_RTGcore_CC] (site ACGGGACCTCT) (LTG core: CT, RTG core: CC) | 0.931
31 | ACGGGACCTTGGGTTCTAACCTGTTGCAGTA [ACGGGACCTCT_LTGcore_CT_RTGcore_TA] (site ACGGGACCTCT) (LTG core: CT, RTG core: TA) | 0.818
32 | ACGGGACCTTGGGTTCTAACCTGTTGCAGTG [ACGGGACCTCT_LTGcore_CT_RTGcore_CA] (site ACGGGACCTCT) (LTG core: CT, RTG core: CA) | 0.172
33 | ACGGGACGATGGGTTCTAACCTGTTGCAGTC [ACGGGACCTCT_LTGcore_GA_RTGcore_GA] (site ACGGGACCTCT) (LTG core: GA, RTG core: GA) | 0.229
34 | ACGGGACGGTGGGTTCTAACCTGTTGCAGCC [ACGGGACCTCT_LTGcore_GG_RTGcore_GG] (site ACGGGACCTCT) (LTG core: GG, RTG core: GG) | 0.12
35 | AGGAGGTACTGGGTTCTAACCTGTTGCCTAG [AGGAGGTCTAG_LTGcore_AC_RTGcore_CT] (site AGGAGGTCTAG) (LTG core: AC, RTG core: CT) | 0.105
36 | AGGAGGTCTTGGGTTCTAACCTGTTGCCTAA [AGGAGGTCTAG_LTGcore_CT_RTGcore_TT] (site AGGAGGTCTAG) (LTG core: CT, RTG core: TT) | 0.203
37 | AGGAGGTCTTGGGTTCTAACCTGTTGCCTAG [AGGAGGTCTAG_LTGcore_CT_RTGcore_CT] (site AGGAGGTCTAG) (LTG core: CT, RTG core: CT) | 1.59
38 | AGGAGGTCTTGGGTTCTAACCTGTTGCCTAT [AGGAGGTCTAG_LTGcore_CT_RTGcore_AT] (site AGGAGGTCTAG) (LTG core: CT, RTG core: AT) | 0.407
39 | AGGAGGTCTTGGGTTCTAACCTGTTGCCTCA [AGGAGGTCTAG_LTGcore_CT_RTGcore_TG] (site AGGAGGTCTAG) (LTG core: CT, RTG core: TG) | 0.322
40 | AGGAGGTCTTGGGTTCTAACCTGTTGCCTCG [AGGAGGTCTAG_LTGcore_CT_RTGcore_CG] (site AGGAGGTCTAG) (LTG core: CT, RTG core: CG) | 0.386
41 | AGGAGGTCTTGGGTTCTAACCTGTTGCCTGT [AGGAGGTCTAG_LTGcore_CT_RTGcore_AC] (site AGGAGGTCTAG) (LTG core: CT, RTG core: AC) | 0.126
